Reference: PubChem BioAssay AID296 (DTP/NCI, 2004)
“And” between values parts separate entries of the source, which are not always exact repeats. Equal entries are not always repeated. Results filed as inconclusive are left out.

Test system: MX-1 breast xenograft, nude mice, tumor weight T/C
Experiment: NCI In Vivo Anticancer Drug Screen. Data for tumor model Human Mammary Carcinoma MX-1 Xenograft (intrarenal inoculation) in NU/NU Swiss (nude) mice
Conditions: endpoint: mean tumor weight change, higher = larger tumour
Method in brief: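 Compound dosed to mice with transplantable tumor; vehicle group as control. Endpoint survival or tumour size, reported as T/C.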

[1] = dose: 600.0 mg/kg/injection, schedule: Q04DX003 (sc), vehicle: saline with Tween-80
[2] = dose: 1200.0 mg/kg/injection, schedule: Q04DX003 (sc), vehicle: saline with Tween-80
[3] = dose: 2400.0 mg/kg/injection, schedule: Q04DX003 (sc), vehicle: saline with Tween-80
[4] = dose: 200.0 mg/kg/injection, schedule: Q04DX003 (sc), vehicle: suspension in saline
[5] = dose: 400.0 mg/kg/injection, schedule: Q04DX003 (sc), vehicle: suspension in saline
[6] = dose: 300.0 mg/kg/injection, schedule: Q04DX003 (sc), vehicle: saline with Tween-80

## COc1ccc2c(NCCCCCCCCNc3c4ccccc4nc4cc(OC)ccc34)c3ccccc3nc2c1
dose: 8.0 mg/kg/injection, schedule: Q04DX003 (sc), vehicle: suspension in saline
  T/C: 68 % of control
dose: 16.0 mg/kg/injection, schedule: Q04DX003 (sc), vehicle: suspension in saline
  T/C: 78 % of control
dose: 32.0 mg/kg/injection, schedule: Q04DX003 (sc), vehicle: suspension in saline
  T/C: 104 % of control
dose: 64.0 mg/kg/injection, schedule: Q04DX003 (sc), vehicle: suspension in saline
  T/C: 92 % of control

## CCC(=O)O[C@H]1CC[C@H]2[C@@H]3CCC4=CC(=O)CC[C@]4(C)[C@H]3CC[C@]12C
dose: 300.0 mg/kg/injection, schedule: Q04DX003 (sc), vehicle: Klucel (hydroxypropylcellulose) (HPC)
  T/C: 76 % of control
dose: 600.0 mg/kg/injection, schedule: Q04DX003 (sc), vehicle: Klucel (hydroxypropylcellulose) (HPC)
  T/C: 88 % of control
dose: 1200.0 mg/kg/injection, schedule: Q04DX003 (sc), vehicle: Klucel (hydroxypropylcellulose) (HPC)
  T/C: 74 % of control
dose: 2400.0 mg/kg/injection, schedule: Q04DX003 (sc), vehicle: Klucel (hydroxypropylcellulose) (HPC)
  T/C: 115 % of control

## [Cl][Pt+2][Cl].[NH-]CC1(C[NH-])CCC1
dose: 3.12 mg/kg/injection, schedule: Q04DX003 (sc), vehicle: suspension in saline
  T/C: 48 % of control
dose: 6.25 mg/kg/injection, schedule: Q04DX003 (sc), vehicle: saline
  T/C: 6 % of control
dose: 6.25 mg/kg/injection, schedule: Q04DX003 (sc), vehicle: suspension in saline
  T/C: 19 % of control and 29 % of control
dose: 12.5 mg/kg/injection, schedule: Q04DX003 (sc), vehicle: suspension in saline
  T/C: 6 % of control and 16 % of control
dose: 25.0 mg/kg/injection, schedule: Q04DX003 (sc), vehicle: suspension in saline
  T/C: -74 % of control and -54 % of control

## CCCCCCCCCCCCCCCCCC(=O)Nc1ccn(C2OC(CO)C(O)C2O)c(=O)n1 (centres undefined)
[1]
  T/C: 11 % of control and 15 % of control and 24 % of control
[2]
  T/C: 3 % of control and 8 % of control

## Nc1n[n+](-c2ccc(Cl)cc2)no1
dose: 25.0 mg/kg/injection, schedule: Q04DX003 (sc), vehicle: water
  T/C: 93 % of control
dose: 50.0 mg/kg/injection, schedule: Q04DX003 (sc), vehicle: water
  T/C: 102 % of control

## N=c1c(C(=O)OCc2ccccc2)ncc(CCl)n1O
[1]
  T/C: 89 % of control
[3]
  T/C: 72 % of control

## CN=C(N)N/N=C(\c1ccccc1)c1ccc(Br)cc1
dose: 25.0 mg/kg/injection, schedule: Q04DX003 (sc), vehicle: saline with Tween-80
  T/C: 101 % of control
dose: 50.0 mg/kg/injection, schedule: Q04DX003 (sc), vehicle: saline with Tween-80
  T/C: 163 % of control
dose: 100.0 mg/kg/injection, schedule: Q04DX003 (sc), vehicle: saline with Tween-80
  T/C: 78 % of control

## C[C@H]1C[C@@H]2[C@H]([C@@H](O)C[C@@]3(C)[C@H]2CC[C@]3(O)C(=O)CO)[C@@]2(C)C=CC(=O)C=C12
dose: 200.0 mg/kg/injection, schedule: Q04DX003 (sc), vehicle: Klucel (hydroxypropylcellulose) (HPC)
  T/C: 33 % of control
dose: 400.0 mg/kg/injection, schedule: Q04DX003 (sc), vehicle: Klucel (hydroxypropylcellulose) (HPC)
  T/C: 31 % of control
dose: 800.0 mg/kg/injection, schedule: Q04DX003 (sc), vehicle: Klucel (hydroxypropylcellulose) (HPC)
  T/C: 30 % of control
dose: 1600.0 mg/kg/injection, schedule: Q04DX003 (sc), vehicle: Klucel (hydroxypropylcellulose) (HPC)
  T/C: 13 % of control

## N#C[C@H](OC1OC(COC2OC(CO)C(O)C(O)C2O)C(O)C(O)C1O)c1ccccc1 (some centres undefined)
dose: 450.0 mg/kg/injection, schedule: Q04DX003 (sc), vehicle: saline
  T/C: 63 % of control
dose: 900.0 mg/kg/injection, schedule: Q04DX003 (sc), vehicle: saline
  T/C: 69 % of control
dose: 1800.0 mg/kg/injection, schedule: Q04DX003 (sc), vehicle: saline
  T/C: 70 % of control
dose: 3600.0 mg/kg/injection, schedule: Q04DX003 (sc), vehicle: saline
  T/C: 67 % of control

## CCOC(=O)C1=C(C#N)C2(CCC(OCc3ccccc3)CC2)C(=O)O1 (centres undefined)
[4]
  T/C: 81 % of control
[5]
  T/C: 119 % of control
dose: 800.0 mg/kg/injection, schedule: Q04DX003 (sc), vehicle: suspension in saline
  T/C: 52 % of control
dose: 1600.0 mg/kg/injection, schedule: Q04DX003 (sc), vehicle: suspension in saline
  T/C: 62 % of control

## CC(C#N)(C#N)N=Nc1ccc(Cl)cc1Cl
[6]
  T/C: 94 % of control
[1]
  T/C: 94 % of control
[2]
  T/C: 98 % of control
[3]
  T/C: 92 % of control

## CCCCCCNc1nc(NCCCCCC)c2[nH]c(NCCCCCC)nc2n1
dose: 300.0 mg/kg/injection, schedule: Q04DX003 (ip), vehicle: saline with Tween-80
  T/C: 75 % of control

## CC(=O)OC1OC(=O)C(C)(C(C)=O)C1C (centres undefined)
dose: 5.0 mg/kg/injection, schedule: Q04DX003 (ip), vehicle: distilled water + alcohol
  T/C: 85 % of control
dose: 10.0 mg/kg/injection, schedule: Q04DX003 (ip), vehicle: distilled water + alcohol
  T/C: 109 % of control
dose: 20.0 mg/kg/injection, schedule: Q04DX003 (ip), vehicle: distilled water + alcohol
  T/C: 35 % of control

## C[C@H](CCC[C@H](C)OS(=O)(=O)c1ccccc1)OS(=O)(=O)c1ccccc1
[6]
  T/C: 92 % of control
[1]
  T/C: 48 % of control

## CN1CCN(c2ccc([N+](=O)[O-])c3no[n+]([O-])c23)CC1
dose: 20.0 mg/kg/injection, schedule: Q01DX010 (sc), vehicle: saline with Tween-80
  T/C: 45 % of control
dose: 40.0 mg/kg/injection, schedule: Q01DX010 (sc), vehicle: saline with Tween-80
  T/C: 69 % of control

## Nc1ncnc2c(C3OC(CO)C(O)C3O)[nH]nc12 (centres undefined)
dose: 75.0 mg/kg/injection, schedule: Q04DX003 (sc), vehicle: Klucel (hydroxypropylcellulose) (HPC)
  T/C: -100 % of control
dose: 75.0 mg/kg/injection, schedule: Q04DX003 (sc), vehicle: suspension in saline
  T/C: 5 % of control
dose: 150.0 mg/kg/injection, schedule: Q04DX003 (sc), vehicle: Klucel (hydroxypropylcellulose) (HPC)
  T/C: -100 % of control
dose: 150.0 mg/kg/injection, schedule: Q04DX003 (sc), vehicle: suspension in saline
  T/C: 5 % of control
dose: 300.0 mg/kg/injection, schedule: Q04DX003 (sc), vehicle: suspension in saline
  T/C: -79 % of control

## CN(C)CCOc1ccc2c(c1)C/C(=C/c1ncc([N+](=O)[O-])n1C)C2=O
[6]
  T/C: 81 % of control
[1]
  T/C: 68 % of control
[2]
  T/C: 89 % of control
[3]
  T/C: 70 % of control

## CCOc1cc2c(cc1C(C)c1ccc(OC)cc1)OCO2 (centres undefined)
dose: 150.0 mg/kg/injection, schedule: Q04DX003 (sc), vehicle: distilled water + alcohol
  T/C: 43 % of control
dose: 300.0 mg/kg/injection, schedule: Q04DX003 (sc), vehicle: distilled water + alcohol
  T/C: 31 % of control
dose: 600.0 mg/kg/injection, schedule: Q04DX003 (sc), vehicle: distilled water + alcohol
  T/C: 19 % of control
dose: 1200.0 mg/kg/injection, schedule: Q04DX003 (sc), vehicle: distilled water + alcohol
  T/C: 52 % of control

## NC(=O)c1[nH]nc(C2OC(CO)C(O)C2O)c1O (centres undefined)
dose: 2.5 mg/kg/injection, schedule: Q04DX003 (sc), vehicle: saline
  T/C: 111 % of control
dose: 20.0 mg/kg/injection, schedule: Q04DX003 (sc), vehicle: saline
  T/C: 68 % of control

## CCNC(=O)OCc1c(COC(=O)NCC)c(-c2ccc(Cl)c(Cl)c2)n2c1CCC2
dose: 12.5 mg/kg/injection, schedule: Q01DX010 (sc), vehicle: saline with Tween-80
  T/C: 46 % of control
dose: 25.0 mg/kg/injection, schedule: Q01DX010 (sc), vehicle: saline with Tween-80
  T/C: 10 % of control
dose: 50.0 mg/kg/injection, schedule: Q01DX010 (sc), vehicle: saline with Tween-80
  T/C: 3 % of control and 8 % of control
dose: 100.0 mg/kg/injection, schedule: Q01DX010 (sc), vehicle: saline with Tween-80
  T/C: 4 % of control

## Cc1c(N)nc(C(CC(N)=O)NCC(N)C(N)=O)nc1C(=O)NC(C(=O)NC(C)C(O)C(C)C(=O)NC(C(=O)NCCc1nc(-c2nc(C(=O)NCCCNCCCc3ccccn3)cs2)cs1)C(C)O)C(OC1OC(CO)C(O)C(O)C1OC1OC(CO)C(O)C(OC(N)=O)C1O)c1cnc[nH]1 (centres undefined)
dose: 9.0 mg/kg/injection, schedule: Q04DX003 (sc), vehicle: water
  T/C: 77 % of control
dose: 18.0 mg/kg/injection, schedule: Q04DX003 (sc), vehicle: water
  T/C: 66 % of control
dose: 36.0 mg/kg/injection, schedule: Q04DX003 (sc), vehicle: water
  T/C: 75 % of control
dose: 72.0 mg/kg/injection, schedule: Q04DX003 (sc), vehicle: water
  T/C: 44 % of control

## Cc1ccc2nc(-c3ccc4nc(-c5ccc(N=Nc6ccc(-c7nc8ccc(-c9nc%10ccc(C)c(S(=O)(=O)O)c%10s9)cc8s7)cc6)cc5)sc4c3)sc2c1S(=O)(=O)O
[4]
  T/C: 90 % of control
[5]
  T/C: 90 % of control

## O=C(/C=C(\Cl)C(=O)NO)NO
dose: 50.0 mg/kg/injection, schedule: Q04DX003 (sc), vehicle: saline
  T/C: 93 % of control
dose: 100.0 mg/kg/injection, schedule: Q04DX003 (sc), vehicle: saline
  T/C: 80 % of control
dose: 200.0 mg/kg/injection, schedule: Q04DX003 (sc), vehicle: saline
  T/C: 77 % of control
